From patent publication EP3917907B1, “MODULATORS OF POTASSIUM ION CHANNELS AND USES THEREOF” (Universitá Degli Studi Di Salerno, priority 2019, dated 2020)

Assays:
[1] = Photostability (HPLC, solar simulator irradiation); type: physicochemical; settings: percentage of degradation after 6 h irradiation with solar simulator; 100 ppm in extracellular solution pH 7.4
Procedure: (§1) In order to study the solution stability and photostability of the potassium channel modulators object of the present invention, a stock solution of the proper analyte (1 mg/mL) in dimethylsulfoxide (DMSO) has been prepared. This solution has been then diluted to a concentration of 100 ppm using extracellular solution containing (in mM): 138 NaCl, 2 CaCl2, 5.4 KCl, 1 MgCl2, 10 glucose, and 10 HEPES, at pH 7.4, adjusted with NaOH. To measure solution stability, the diluted solutions have been maintained at ambient temperature for 6 h. To measure photostability, the diluted solutions have been irradiated for 6 h using a Oriel Sol3A Solar Simulator (Newport corporation, Irvine, CA, USA) with a 12x12 inches output beam. Aliquots of solution have been withdrawn after 6h and analyzed by HPLC using a Kinetex C18, 150 mm × 4.6 mm × 2.6 µm (Phenomenex, Bologna, Italy) as stationary phase and a mobile phase constituted by A: H2O/CH3CN (80:20) and B: CH3CN. Gradient elution has been performed from 20% to 90% of B in 7.50 minutes and from 90% to 20% of B in 1 minute. The pump flux has been set to 1.5 mL/min. Column has been thermostatted at 40°C during analysis. Results are espressed in Table 3 as percentage of degradation of the product calculated as ratio between the peak area of the analyte at time 0 (Pa0) and after 6h (Pa6) using the following formula: % degradation = (Pa0−Pa6)/Pa0 *100. [formula]

[2] = molecular target: T1, Kv7.2 (Homo sapiens, UniProt O43526); experiment: Whole-cell patch-clamp on CHO cells transiently expressing Kv7.2; type: cell-based; settings: CHO cells, mean±SEM, >1 activating, <1 inhibiting; for Idrug/Ictl at 0 mV: ratio of ramp-evoked Kv7.2 current amplitude in presence and absence of drug at 0 mV; for Idrug/Ictl at -40 mV: ratio of ramp-evoked Kv7.2 current amplitude in presence and absence of drug at -40 mV
T1 construct: expressed in transfected cells; host or cells: CHO cells (ATCC CRL-9618), transient transfection, pcDNA3.1(+)
Procedure: According to the experimental protocol, these plasmids were expressed individually or in combination (in particular of Kv7.2 and Kv7.3), together with a plasmid-expressing enhanced green fluorescent protein (Clontech, Palo Alto, CA) used as a transfection marker. Total cDNA in the transfection mixture was kept at 4 µg. CHO cells were grown in 100-mm plastic Petri dishes in Dulbecco's modified Eagle's medium containing 10% fetal bovine serum, nonessential amino acids (0.1 mM), penicillin (50 U/ml), and streptomycin ([…]) in a humidified atmosphere at 37°C with 5% CO2. The cells were plated on glass coverslips coated with poly-L-lysine, and transfected one day after plating with the appropriate cDNA using Lipofectamine 2000 (Life Technologies), according to the manufacturer's protocol.
Currents from CHO cells were recorded at room temperature (20-22°C) 24 hours after trasfection using the whole-cell configuration of the patch-clamp technique, with glass micropipettes of 3-5 MΩ resistance. During the recording, constant perfusion of extracellular solution was maintained. The extracellular solution contained (in mM): 138 NaCl, 2 CaCl2, 5.4 KCl, 1 MgCl2, 10 glucose, and 10 HEPES, at pH 7.4, adjusted with NaOH. The pipette (intracellular) solution contained (in mM): 140 KCl, 2 MgCl2, 10 EGTA, 10 HEPES, 5 Mg^2+-ATP, at pH 7.3-7.4, adjusted with KOH. Currents were recorded using an Axopatch-200A amplifier, filtered at 5 kHz, and digitized using a DigiData 1440A (Molecular Devices). The pCLAMP software (version 10.2, Molecular Devices) was used for data acquisition and analysis. To evaluate the activity of exemplary compounds on Kv7.2 (see Table 1), as well as on Kv7.1, Kv7.2/7.3, Kv7.3 and Kv7.4 channels for selected compounds (see Table 2), the cells were clamped at -80 mV and currents were elicited by 3-s voltage ramps from -80 mV to +20 mV in the presence and absence of each compound. […] The effects of drugs were expressed as shift in the ramp-voltage (ΔV) calculated at 20% of the maximal current (Miceli et al, Proc Natl Acad Sci U S A. 2013, 110(11):4386-91). Curves were fitted using the following equation: y=max/(1+x/EC50)n, where x is the drug concentration, n is the Hill coefficient and max is the maximal value achieved, as previously described (Ambrosino et al, Br J Pharmacol. 2013, 168(6):1430-1444). Data analysis and fit were performed using Sigmaplot (version 12.3).
Ramp-evoked Kv7.2 currents were analyzed by measuring the currents at -40 mV (a membrane potential value close to the activation threshold) and at 0 mV (a membrane potential value at which Kv7.2 conductance is largely saturated). In particular, -40 mV represents the threshold potential for spike initiation and 0 mV represents instead the membrane potential value at which maximal conductance of the channel is achieved.
In Table 1, the effect of exemplary compounds of the invention is expressed as the ratio between current amplitude in the presence (Idrug) and absence (Ictl) of the drug at these two membrane voltages. […]

[3] = Solution stability (HPLC, extracellular solution, ambient temperature); type: physicochemical; settings: percentage of degradation after 6 h at ambient temperature; 100 ppm in extracellular solution pH 7.4
Procedure: as §1

Photostability [1]	Idrug/Ictl at 0 mV [2]	Idrug/Ictl at -40 mV [2]	Solution stability [3]	SMILES
B (20%< degradation<40%)	0.84±0.09	0.98±0.09	A (degradation lower than 20%)	CC(C)(C)CNC(=N)Nc1ccc2c(c1)CCN2Cc1ccc(F)cc1 [1-(1-(4-fluorobenzyl)indolin-5-yl)-3-neopentylguanidine]
B (20%< degradation<40%)			A (degradation lower than 20%)	CC(C)(C)CNC(=S)Nc1ccc2c(c1)CCN2Cc1ccc(F)cc1 [1-(1-(4-fluorobenzyl)indolin-5-yl)-3-neopentylthiourea]
A (degradation lower than 20%)	1.40±0.08	3.31±0.61	A (degradation lower than 20%)	CC(C)(C)CNC(=O)Nc1ccc2c(c1)CCN2Cc1ccc(F)cc1 [1-(1-(4-fluorobenzyl)indolin-5-yl)-3-neopentylurea]
C (degradation > 40%)	1.16±0.07	1.49±0.28	C (degradation > 40%)	CC1(C)[C@H]2CC[C@]1(CS(=O)(=O)Nc1ccc3c(c1)CCN3Cc1ccc(F)cc1)C(=O)C2 [1-((1R,4S)-7,7-dimethyl-2-oxobicyclo[2.2.1]heptan-1-yl)-N-(1-(4-fluorobenzyl)indolin-5-yl)methanesulfonamide]
C (degradation > 40%)	0.99±0.06	1.12±0.05	C (degradation > 40%)	CC1(C)[C@@H]2CC[C@@]1(CS(=O)(=O)Nc1ccc3c(c1)CCN3Cc1ccc(F)cc1)C(=O)C2 [1-((1S,4R)-7,7-dimethyl-2-oxobicyclo[2.2.1]heptan-1-yl)-N-(1-(4-fluorobenzyl)indolin-5-yl)methanesulfonamide]
A (degradation lower than 20%)			A (degradation lower than 20%)	O=S(=O)(CC1CCCCC1)Nc1ccc2c(ccn2Cc2ccc(F)cc2)c1 [1-cyclohexyl-N-(1-(4-fluorobenzyl)-1H-indol-5-yl)methanesulfonamide]
C (degradation > 40%)			B (20%< degradation<40%)	CCc1cccc(S(=O)(=O)Nc2ccc(NCc3ccc(OC)cc3)cc2)c1 [3-ethyl-N-(4-((4-methoxybenzyl)amino)phenyl)benze nesulfonamide]
C (degradation > 40%)			B (20%< degradation<40%)	COc1ccc([C@@H](C)Nc2ccc(NS(=O)(=O)C3CCCCC3)cc2)cc1 [(R)-N-(4-((1-(4-methoxyphenyl)ethyl)amino)phenyl) cyclohexanesulfonamide]
C (degradation > 40%)			B (20%< degradation<40%)	COc1ccc([C@H](C)Nc2ccc(NS(=O)(=O)C3CCCCC3)cc2)cc1 [(S)-N-(4-((1-(4-methoxyphenyl)ethyl)amino)phenyl) cyclohexanesulfonamide]
B (20%< degradation<40%)			A (degradation lower than 20%)	O=C(Cn1ccc2cc(NS(=O)(=O)CC3CCCCC3)ccc21)c1ccc(Br)cc1 [N-(1-(2-(4-bromophenyl)-2-oxoethyl)-1H-indol-5-yl)-1-cyclohexylmethanesulfonamide]
A (degradation lower than 20%)			A (degradation lower than 20%)	O=C(Cc1ccc(Cl)cc1)n1ccc2cc(NS(=O)(=O)C3CCCCC3)ccc21 [N-(1-(2-(4-chlorophenyl)acetyl)-1H-indol-5-yl) cyclohexanesulfonamide]
B (20%< degradation<40%)			A (degradation lower than 20%)	Cc1cc2cc(NS(=O)(=O)C3CCCCC3)ccc2n1Cc1ccc(F)cc1N [N-(1-(2-amino-4-fluorobenzyl)-2-methyl-1H-indol-5-yl)cyclohexanesulfonamide]
A (degradation lower than 20%)			A (degradation lower than 20%)	O=S(=O)(Nc1ccc2c(ccn2Cc2ccc(C(F)(F)F)cc2O)c1)C1CCCCC1 [N-(1-(2-hydroxy-4-(trifluoromethyl)benzyl)-1H-indol-5-yl)cyclohexanesulfonamide]
C (degradation > 40%)			C (degradation > 40%)	O=S(=O)(Nc1ccc2c(c1)CCN2Cc1ccc(F)cc1)C1CCCCC1 [N-(1-(4-fluorobenzyl)indolin-5-yl)cyclohexanesulfonamide]
A (degradation lower than 20%)			A (degradation lower than 20%)	CCc1cn(Cc2ccc(C(F)(F)F)cc2)c2ccc(NS(=O)(=O)C3CCCCC3)cc12 [N-(3-ethyl-1-(4-(trifluoromethyl)benzyl)-1H-indol-5-yl) cyclohexanesulfonamide]
	0.83±0.10	0.78±0.15		O=S(=O)(Nc1ccc(NCc2ccc(F)cc2)c(F)c1)C1CCCCC1 [N-(3-fluoro-4-((4-fluorobenzyl)amino)phenyl) cyclohexanesulfonamide]
B (20%< degradation<40%)			A (degradation lower than 20%)	Cc1cc2c(c(C)c1NS(=O)(=O)C1CCCCC1)CCN2Cc1ccc(C(F)(F)F)cc1 [N-(4,6-dimethyl-1-(4-(trifluoromethyl)benzyl)indolin-5-yl)cyclohexanesulfonamide]
B (20%< degradation<40%)			B (20%< degradation<40%)	COc1ccc(CN(C)c2ccc(NS(=O)(=O)C3CCCCC3)cc2)cc1 [N-(4-((4-methoxybenzyl)(methyl)amino)phenyl) cyclohexanesulfonamide]
C (degradation > 40%)			B (20%< degradation<40%)	COc1ccc(CNc2ccc(NS(=O)(=O)C3CCCCC3)cc2)cc1 [N-(4-((4-methoxybenzyl)amino)phenyl) cyclohexanesulfonamide]
B (20%< degradation<40%)			A (degradation lower than 20%)	Cc1c(NS(=O)(=O)C2CCCCC2)ccc2c1ccn2Cc1ccc(C(F)(F)F)cc1 [N-(4-methyl-1-(4-(trifluoromethyl)benzyl)-1H-indol-5-yl)cyclohexanesulfonamide]
A (degradation lower than 20%)			A (degradation lower than 20%)	O=S(=O)(Nc1cc(F)c2c(ccn2Cc2ccc(C(F)(F)F)cc2)c1)C1CCCCC1 [N-(7-fluoro-1-(4-(trifluoromethyl)benzyl)-1H-indol-5-yl) cyclohexanesulfonamide]
B (20%< degradation<40%)			B (20%< degradation<40%)	O=S(=O)(Nc1cc(F)c2c(c1)CCN2Cc1ccc(C(F)(F)F)cc1)C1CCCCC1 [N-(7-fluoro-1-(4-(trifluoromethyl)benzyl)indolin-5-yl) cyclohexanesulfonamide]
